Results taken from US20240409557A1, “5,6-FUSED AND 6,6-FUSED BICYCLIC ALCOHOLS AND ETHERS AND COMPOSITIONS FOR USE AS 15-PROSTAGLANDIN DEHYDROGENASE MODULATORS” (AMGEN INC., priority 2023, published 2024).

biological target: T1, human recombinant 15-PGDH (Homo sapiens, UniProt P15428); test: Recombinant 15-PGDH enzymatic inhibition assay (PGDH-Lumi, NADH signal); assay type: biochemical; conditions: recombinant 15-PGDH; 15 min pre-incubation, 60 min reaction with PGE2 and NAD+, NADH signal
T1 sequence (P15428 1-266): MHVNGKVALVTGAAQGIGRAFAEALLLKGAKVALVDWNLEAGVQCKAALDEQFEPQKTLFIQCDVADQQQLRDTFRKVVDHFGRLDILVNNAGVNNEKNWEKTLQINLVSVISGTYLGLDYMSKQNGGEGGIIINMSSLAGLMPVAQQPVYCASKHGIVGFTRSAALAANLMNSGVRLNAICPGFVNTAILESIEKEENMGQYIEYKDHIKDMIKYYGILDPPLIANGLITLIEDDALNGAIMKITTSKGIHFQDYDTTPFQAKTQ
Experimental: These assays measured 15-PGDH enzymatic activity by quantifying the amount of NADH produced during a 60-minute reaction initiated by the addition of PGE2 and NAD+. Under the conditions of these experiments, the increase of NADH signal upon oxidation of PGE2 and reduction of NAD+ was linearly proportional to 15-PGDH enzymatic activity. The recombinant human, mouse, rat and dog 15-PGDH enzymatic assays were performed in a 25 μL volume of reaction buffer containing 50 mM Tris, pH 7.5, 0.01% Tween-20 and […] DTT in a 384-well microtiter plate. In concentration-response experiments with tested compounds, 22 concentrations from 2-fold serial dilutions in DMSO were pre-incubated with 15-PGDH for 15 minutes at room temperature. Then, PGE2 and β-NAD+ were added to initiate the 15-PGDH reaction. After 60 minutes at room temperature, the reaction was quenched and NADH signal was measured using a microtiter plate reader.
The following data (Table 27-1) provides the IC50 in μM of each compound for inhibiting enzymatic activity of the recombinant 15-PGDH in the assay described above.

IC50 [nM]	SMILES
555	CCC(O)(c1cc2ccc(-c3cnc4nn(C)cc4c3)nc2s1)C(F)(F)F (centres unmarked) [Compound C14, 1,1,1-trifluoro-2-(6-(2-methyl-2H-pyrazolo[3,4-b]pyridin-5-yl)thieno[2,3-b]pyridin-2-yl)-2-butanol]
0.749	Nc1c(C(O)C2CC(F)(F)C2)sc2nc(-c3cncnc3)ccc12 (centres unmarked) [Compound B71, (3-amino-6-(5-pyrimidinyl)thieno[2,3-b]pyridin-2-yl)(3,3-difluorocyclobutyl)methanol]
671	COCc1cc2c(C3CCC3)cc(-c3cnc4nn(C)cc4c3)nc2s1 [Compound A3, 5-(4-cyclobutyl-2-(methoxymethyl)thieno[2,3-b]pyridin-6-yl)-2-methyl-2H-pyrazolo[3,4-b]pyridine]
7.27	CN1CC(O)(c2cc3ccc(-c4cnc5nn(C)cc5c4)nc3s2)C1 [Compound C12, 1-methyl-3-(6-(2-methyl-2H-pyrazolo[3,4-b]pyridin-5-yl)thieno[2,3-b]pyridin-2-yl)-3-azetidinol]
67.7	Cn1cc2cc(-c3ccc4cc(C5(O)CCS(=O)(=O)CC5)sc4n3)cnc2n1 [Compound C8, 4-(6-(2-methyl-2H-pyrazolo[3,4-b]pyridin-5-yl)thieno[2,3-b]pyridin-2-yl)tetrahydro-2H-thiopyran-4-ol 1,1-dioxide]
8.41	COCCC(O)c1cc2ccc(-c3cnc4nn(C)cc4c3)cc2s1 (centres unmarked) [Compound B59, 3-methoxy-1-(6-(2-methyl-2H-pyrazolo[3,4-b]pyridin-5-yl)-1-benzothiophen-2-yl)-1-propanol]
0.62	O=C1NCc2cc(-c3ncc4cc([C@]5(O)C[C@@H](C(F)(F)F)C5)sc4n3)cnc21 [Compound C128C, 3-(6-(cis-1-hydroxy-3-(trifluoromethyl)cyclobutyl)thieno[2,3-d]pyrimidin-2-yl)-5,6-dihydro-7H-pyrrolo[3,4-b]pyridin-7-one]
111	Cn1cc2cc(-c3ccc4cc([C@@H](O)C5CCCC5)sc4c3)cnc2n1 (single isomer, unassigned) [Compound B58S]
1800	CN1CCC(O)(c2cc3ccc(-c4cnc5nn(C)cc5c4)nc3s2)C1 (centres unmarked) [Compound C4, 1-methyl-3-(6-(2-methyl-2H-pyrazolo[3,4-b]pyridin-5-yl)thieno[2,3-b]pyridin-2-yl)-3-pyrrolidinol]
15.9	CC(C)[C@H](O)c1cc2ccc(-c3cnc4nn(C)cc4c3)nc2s1 (single isomer, unassigned) [Compound B24S]
149	Cn1ncc2cc(-c3ccc4cc([C@@H](O)C5CCOCC5)sc4n3)cnc21 (single isomer, unassigned) [Compound B35S]
626	O[C@H](c1cc2ccc(-c3ccc4oncc4c3)nc2s1)C1CCOCC1 (single isomer, unassigned) [Compound B43S]
15	CN1CCCC(C(O)c2cc3ccc(-c4cnc5nn(C)cc5c4)nc3s2)C1 (centres unmarked) [Compound B63]
40.6	Cn1cc2cc(-c3ccc4cc(C5(O)CCCC5)sc4n3)cnc2n1 [Compound C19, 1-(6-(2-methyl-2H-pyrazolo[3,4-b]pyridin-5-yl)thieno[2,3-b]pyridin-2-yl)cyclopentanol]
4700	Cn1ncc2cc(-c3ccc4cc([C@@H](O)C5CCOCC5)sc4n3)ccc21 (single isomer, unassigned) [Compound B34S]
14.9	Cn1cc2cc(-c3cc(C4CC4)nc4sc(C(O)C5CCC5)cc34)cnc2n1 (centres unmarked) [Compound B7, cyclobutyl(6-cyclopropyl-4-(2-methyl-2H-pyrazolo[3,4-b]pyridin-5-yl)thieno[2,3-b]pyridin-2-yl)methanol]
6.58	Cc1nc2ccc(-c3ccc4cc([C@@H](O)C5CC(F)(F)C5)sc4n3)cc2o1 (single isomer, unassigned) [Compound B51S]
1100	COCC[C@H](O)c1cc2ccc(-c3cnc4nn(C)cc4c3)cc2s1 (single isomer, unassigned) [Compound B59S]
0.44	Cn1cc2cc(-c3cnc4sc([C@H](O)C5CC(F)(F)C5)cc4n3)cnc2n1 [Compound B96R, (R)-(3,3-difluorocyclobutyl)(2-(2-methyl-2H-pyrazolo[3,4-b]pyridin-5-yl)thieno[2,3-b]pyrazin-6-yl)methanol]
17700	CC(O)c1cc2c(-c3ccnn3C)cc(-c3ccnn3C)nc2s1 (centres unmarked) [Compound B9, 1-(4,6-bis(1-methyl-1H-pyrazol-5-yl)thieno[2,3-b]pyridin-2-yl)ethanol]
257	Cn1cc2cc(-c3ccc4cc(C5(O)CCOCC5)sc4n3)cnc2n1 [Compound C22, 4-(6-(2-methyl-2H-pyrazolo[3,4-b]pyridin-5-yl)thieno[2,3-b]pyridin-2-yl)tetrahydro-2H-pyran-4-ol]

IC50 [nM]	SMILES
8.64	CN1CCC1C(O)c1cc2ccc(-c3cnc4nn(C)cc4c3)nc2s1 (centres unmarked) [Compound B45]
93	Cc1cc2[nH]ncc2cc1-c1ccc2cc([C@H](O)C3CCOCC3)sc2n1 (single isomer, unassigned) [Compound B38R]
1.65	Cn1nnc2cc(-c3ccc4cc([C@@H](O)C5CC(F)(F)C5)sc4n3)cnc21 [Compound B82S, (S)-(3,3-difluorocyclobutyl)(6-(3-methyl-3H-[1,2,3]triazolo[4,5-b]pyridin-6-yl)thieno[2,3-b]pyridin-2-yl)methanol]
11.8	Cc1cn2cc(-c3ccc4cc([C@@H](O)C5CC(F)(F)C5)sc4n3)ccc2n1 (single isomer, unassigned) [Compound B48S]
757	CCC[C@H](O)c1cc2ccc(-c3cnc4nn(C)cc4c3)cc2s1 (single isomer, unassigned) [Compound B54S]
159	Cn1cc2cc(-c3ccc4cc(CO)sc4n3)cnc2n1 [Compound A1, (6-(2-methyl-2H-pyrazolo[3,4-b]pyridin-5-yl)thieno[2,3-b]pyridin-2-yl)methanol]
101	Cn1cc2cc(-c3ccc4cc(C(C)(O)C5CC5)sc4n3)cnc2n1 (centres unmarked) [Compound C11, 1-cyclopropyl-1-(6-(2-methyl-2H-pyrazolo[3,4-b]pyridin-5-yl)thieno[2,3-b]pyridin-2-yl)ethanol]
807	COCCC(O)(c1cc2ccc(-c3cnc4nn(C)cc4c3)nc2s1)C(F)(F)F (centres unmarked) [Compound C3, 1,1,1-trifluoro-4-methoxy-2-(6-(2-methyl-2H-pyrazolo[3,4-b]pyridin-5-yl)thieno[2,3-b]pyridin-2-yl)-2-butanol]
23.6	CC[C@H](O)c1cc2c(C3CC3)cc(-c3cnc4nn(C)cc4c3)nc2s1 (single isomer, unassigned) [Compound B13S]
1260	Cn1cc2cc(-c3ccc4cc(C(O)(C5CC5)C(F)(F)F)sc4n3)cnc2n1 (centres unmarked) [Compound C17, 1-cyclopropyl-2,2,2-trifluoro-1-(6-(2-methyl-2H-pyrazolo[3,4-b]pyridin-5-yl)thieno[2,3-b]pyridin-2-yl)ethanol]
18.3	CC(C)n1cc2cc(-c3ccc4cc([C@@H](O)C5CC(F)(F)C5)sc4n3)ccc2n1 (single isomer, unassigned) [Compound B56S]
1990	Cn1cc2cc(-c3ccc4cc([C@]5(O)CCC5(C)C)sc4n3)cnc2n1 (single isomer, unassigned) [Compound C65S]
133	O[C@H](c1cc2ccc(-c3cnc4[nH]nnc4c3)nc2s1)C1CCOCC1 (single isomer, unassigned) [Compound B44S]
43.8	COCCC(C)(O)c1cc2ccc(-c3cnc4nn(C)cc4c3)nc2s1 (centres unmarked) [Compound C1, 4-methoxy-2-(6-(2-methyl-2H-pyrazolo[3,4-b]pyridin-5-yl)thieno[2,3-b]pyridin-2-yl)-2-butanol]
761	CN1CCCC(O)(c2cc3ccc(-c4cnc5nn(C)cc5c4)nc3s2)C1 (centres unmarked) [Compound C13, 1-methyl-3-(6-(2-methyl-2H-pyrazolo[3,4-b]pyridin-5-yl)thieno[2,3-b]pyridin-2-yl)-3-piperidinol]
2920	CN1CCC(O)(c2cc3ccc(-c4cnc5nn(C)cc5c4)nc3s2)CC1 [Compound C7, 1-methyl-4-(6-(2-methyl-2H-pyrazolo[3,4-b]pyridin-5-yl)thieno[2,3-b]pyridin-2-yl)-4-piperidinol]
544	COCC(C)(O)c1cc2ccc(-c3cnc4nn(C)cc4c3)nc2s1 (centres unmarked) [Compound C6, 1-methoxy-2-(6-(2-methyl-2H-pyrazolo[3,4-b]pyridin-5-yl)thieno[2,3-b]pyridin-2-yl)-2-propanol]
151	Cn1nnc2cc(-c3ccc4cc([C@@H](O)C5CCOCC5)sc4n3)cnc21 (single isomer, unassigned) [Compound B41S]
58.6	Cn1nccc1-c1cc(-c2ccnn2C)c2cc(C(O)C3CCC3)sc2n1 (centres unmarked) [Compound B1, (4,6-bis(1-methyl-1H-pyrazol-5-yl)thieno[2,3-b]pyridin-2-yl)(cyclobutyl)methanol]
3.1	Cn1cc2cc(-c3cnc4sc([C@@H](O)C5CC(F)(F)C5)cc4n3)cnc2n1 [Compound B96S, (S)-(3,3-difluorocyclobutyl)(2-(2-methyl-2H-pyrazolo[3,4-b]pyridin-5-yl)thieno[2,3-b]pyrazin-6-yl)methanol]
